Measured values: patent US10385024B2, “Compounds and methods for inhibiting NHE-mediated antiport in the treatment of disorders associated with fluid retention or salt overload and gastrointestinal tract disorders” (Ardelyx, Inc., priority 2012, dated 2019)

Tests used:
Rat NHE-3 = molecular target: T1, Rat NHE-3 (Rattus norvegicus, UniProt P26433); experiment: Cell-based assay of NHE-3 activity (rat NHE-3 prompt inhibition); conditions: OK cells with rat NHE-3 gene, compound present during pH recovery; read-out: Rat NHE3 pIC50 (prompt) (converted)
T1 construct: expressed in transfected cells; host or cells: Opossum kidney (OK) cells (ATCC), transfected by electroporation
T1 sequence (P26433 29-831): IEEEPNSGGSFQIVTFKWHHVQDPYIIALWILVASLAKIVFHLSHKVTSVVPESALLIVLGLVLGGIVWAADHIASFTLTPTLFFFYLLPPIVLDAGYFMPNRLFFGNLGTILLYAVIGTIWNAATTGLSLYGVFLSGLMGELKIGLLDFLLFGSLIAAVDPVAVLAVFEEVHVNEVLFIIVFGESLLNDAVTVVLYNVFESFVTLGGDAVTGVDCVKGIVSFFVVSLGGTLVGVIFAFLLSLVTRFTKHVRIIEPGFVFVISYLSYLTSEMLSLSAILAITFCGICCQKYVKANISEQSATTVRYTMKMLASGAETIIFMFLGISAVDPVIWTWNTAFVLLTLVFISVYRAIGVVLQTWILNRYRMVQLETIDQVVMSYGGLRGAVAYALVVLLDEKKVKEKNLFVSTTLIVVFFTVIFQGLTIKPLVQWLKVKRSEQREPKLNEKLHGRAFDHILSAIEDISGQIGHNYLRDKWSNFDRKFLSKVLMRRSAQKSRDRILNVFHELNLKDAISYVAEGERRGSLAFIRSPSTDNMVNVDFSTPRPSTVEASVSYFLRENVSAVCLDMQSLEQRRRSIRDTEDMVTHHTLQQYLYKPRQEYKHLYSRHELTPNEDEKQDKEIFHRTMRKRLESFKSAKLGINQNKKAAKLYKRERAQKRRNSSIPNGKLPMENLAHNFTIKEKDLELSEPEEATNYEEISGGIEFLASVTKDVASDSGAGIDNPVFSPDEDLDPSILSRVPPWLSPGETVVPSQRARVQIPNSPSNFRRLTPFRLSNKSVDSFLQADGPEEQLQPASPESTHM
Method in brief: (§1)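 Opossum kidney cells electroporated with rat or human NHE-3, loaded with 5 μM BCECF-AM in NH4Cl-HEPES pH 7.4 for 30 min at RT, then acidified 10 min in Na+-free choline HEPES. Na+-dependent pH recovery rates from BCECF fluorescence, averaged over ≥2 replicates, gave pIC50.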

[1] = system: absorption of sodium from the intestinal lumen; experiment: Inhibition of intestinal sodium absorption (urinary sodium and fecal form); type: in vivo, Sprague-Dawley rats; conditions: rat, 3 mg/kg oral gavage, urine 16 h post-dose; asterisks = significance vs vehicle (*P<0.05, **P<0.01, ***P<0.001); read-out: uNa (% of vehicle)
Method in brief: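 Sprague-Dawley rats (8 weeks, n=6) dosed by oral gavage with compound or water vehicle (10 mL/kg) in late afternoon, then housed in metabolic cages. Over 16 h, urinary sodium measured by ion chromatography and expressed as % of vehicle mean; fecal form scored 1–5, averaged from two observations.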

human NHE-3 = molecular target: T2, human NHE-3 (Homo sapiens, UniProt P48764); experiment: Cell-based assay of NHE-3 activity (human NHE3 inhibition assay); conditions: OK cells with human NHE-3 gene, BCECF pH dye, 0-30 μM test compound; read-out: Human NHE3 pIC50 (converted)
T2 construct: expressed in transfected cells; host or cells: Opossum kidney (OK) cells (ATCC), transfected by electroporation
T2 sequence (P48764 26-834): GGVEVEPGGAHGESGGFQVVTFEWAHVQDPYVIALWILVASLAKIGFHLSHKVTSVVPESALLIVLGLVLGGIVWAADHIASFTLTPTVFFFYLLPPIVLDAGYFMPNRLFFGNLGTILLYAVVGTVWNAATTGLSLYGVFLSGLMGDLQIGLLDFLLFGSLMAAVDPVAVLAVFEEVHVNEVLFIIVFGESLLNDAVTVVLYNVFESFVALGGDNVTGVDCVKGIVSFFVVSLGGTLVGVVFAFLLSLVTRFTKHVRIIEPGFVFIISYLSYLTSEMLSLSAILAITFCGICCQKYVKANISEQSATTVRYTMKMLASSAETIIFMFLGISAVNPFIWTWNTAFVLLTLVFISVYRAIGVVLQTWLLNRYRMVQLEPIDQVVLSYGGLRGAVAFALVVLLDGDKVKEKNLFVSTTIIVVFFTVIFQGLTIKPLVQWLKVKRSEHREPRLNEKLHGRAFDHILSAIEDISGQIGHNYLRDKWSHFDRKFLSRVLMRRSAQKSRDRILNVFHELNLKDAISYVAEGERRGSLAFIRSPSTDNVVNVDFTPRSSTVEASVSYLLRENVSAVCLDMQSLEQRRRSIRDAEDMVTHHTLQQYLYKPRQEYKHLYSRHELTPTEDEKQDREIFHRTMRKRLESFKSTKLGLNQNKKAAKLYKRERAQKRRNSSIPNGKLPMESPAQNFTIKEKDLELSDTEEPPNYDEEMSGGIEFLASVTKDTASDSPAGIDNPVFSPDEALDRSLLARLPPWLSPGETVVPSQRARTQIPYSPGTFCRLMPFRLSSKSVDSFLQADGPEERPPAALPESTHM
Method in brief: as §1

Structure (SMILES) | IC50 (Rat NHE-3) | response vs control in vivo at 3 mg/kg [1] | IC50 (human NHE-3)
CN1Cc2c(Cl)cc(Cl)cc2[C@H](c2cccc(S(=O)(=O)NCCOCCOCCNC(=O)CCC(CCC(=O)NCCOCCOCCNS(=O)(=O)c3cccc([C@@H]4CN(C)Cc5c(Cl)cc(Cl)cc54)c3)(CCC(=O)NCCOCCOCCNS(=O)(=O)c3cccc([C@@H]4CN(C)Cc5c(Cl)cc(Cl)cc54)c3)NC(=O)NCCN3CCOCC3)c2)C1 [Example 17, N^1,N^7-bis(2-(2-(2-(3-((S)-6,8-dichloro-2-methyl-1,2,3,4-tetrahydroisoquinolin-4-yl)phenylsulfonamido)ethoxy)ethoxy)ethyl)-4-(3-(2-(2-(2-(3-((S)-6,8-dichloro-2-methyl-1,2,3,4-tetrahydroisoquinolin-4-yl)phenylsulfonamido)ethoxy)ethoxy)ethylamino)-3-oxopropyl)-4-(3-(2-morpholinoethyl)ureido)heptanediamide] | < 100 nM | < 35% | < 100 nM
CN1Cc2c(Cl)cc(Cl)cc2[C@H](c2cccc(S(=O)(=O)NCCOCCOCCNC(=O)CCC(CCC(=O)NCCOCCOCCNS(=O)(=O)c3cccc([C@@H]4CN(C)Cc5c(Cl)cc(Cl)cc54)c3)(CCC(=O)NCCOCCOCCNS(=O)(=O)c3cccc([C@@H]4CN(C)Cc5c(Cl)cc(Cl)cc54)c3)NC(=O)NCC(=O)O)c2)C1 [Example 7, 18-(3-((S)-6,8-dichloro-2-methyl-1,2,3,4-tetrahydroisoquinolin-4-yl)phenylsulfonamido)-6,6-bis(3-(2-(2-(2-(3-((S)-6,8-dichloro-2-methyl-1,2,3,4-tetrahydroisoquinolin-4-yl)phenylsulfonamido)ethoxy)ethoxy)ethylamino)-3-oxopropyl)-4,9-dioxo-13,16-dioxa-3,5,10-triazaoctadecan-1-oic acid] | < 100 nM | < 35% | < 100 nM
CN1Cc2c(Cl)cc(Cl)cc2[C@H](c2cccc(S(=O)(=O)NCCOCCOCCNC(=O)CCC(CCC(=O)NCCOCCOCCNS(=O)(=O)c3cccc([C@@H]4CN(C)Cc5c(Cl)cc(Cl)cc54)c3)(CCC(=O)NCCOCCOCCNS(=O)(=O)c3cccc([C@@H]4CN(C)Cc5c(Cl)cc(Cl)cc54)c3)NC(=O)COCC(=O)O)c2)C1 [Example 6, 1-(3-((S)-6,8-dichloro-2-methyl-1,2,3,4-tetrahydroisoquinolin-4-yl)phenylsulfonamido)-13,13-bis(3-(2-(2-(2-(3-((S)-6,8-dichloro-2-methyl-1,2,3,4-tetrahydroisoquinolin-4-yl)phenylsulfonamido)ethoxy)ethoxy)ethylamino)-3-oxopropyl)-10,15-dioxo-3,6,17-trioxa-9,14-diazanonadecan-19-oic Acid] | < 100 nM | < 35% | < 100 nM
